± gives the standard deviation of the averaged measurements.
Assays:
17-AAG = compound: C=CCNC1=C2C[C@@H](C)C[C@H](OC)[C@H](O)[C@@H](C)/C=C(\C)[C@H](OC(N)=O)[C@@H](OC)/C=C\C=C(/C)C(=O)NC(=CC1=O)C2=O [17-AAG]; experiment: surviving fraction relative to DMSO-only wells; higher = less growth inhibition; settings: exposure time: 5 days
Method in brief: (§1)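 Viability was determined by CellTiter-Glo luminescence, expressed as surviving fraction normalised to the median of DMSO-only wells. The cells were log-phase tumour cell lines seeded at 250–500 per well in 384-well plates and, after 24 hours, exposed continuously for five days to inhibitors at 0.5, 1, 5, 10, 50, 100, 500 and 1000 nM. Three screens per line were run, keeping only lines with replicate Pearson r >0.7 and median Z' >0.3.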

VISMODEGIB = compound: CS(=O)(=O)c1ccc(C(=O)Nc2ccc(Cl)c(-c3ccccn3)c2)c(Cl)c1 [VISMODEGIB]; experiment: as above; settings: exposure time: 5 days
Method in brief: as §1

Row | Test System | surviving fraction (17-AAG; 0.5 nM) | surviving fraction (17-AAG; 1 nM) | surviving fraction (17-AAG; 5 nM) | surviving fraction (17-AAG; 10 nM) | surviving fraction (17-AAG; 50 nM) | surviving fraction (17-AAG; 100 nM) | surviving fraction (17-AAG; 500 nM) | surviving fraction (17-AAG; 1000 nM) | surviving fraction (VISMODEGIB; 0.5 nM) | surviving fraction (VISMODEGIB; 1 nM) | surviving fraction (VISMODEGIB; 5 nM) | surviving fraction (VISMODEGIB; 10 nM) | surviving fraction (VISMODEGIB; 50 nM) | surviving fraction (VISMODEGIB; 100 nM) | surviving fraction (VISMODEGIB; 500 nM) | surviving fraction (VISMODEGIB; 1000 nM)
1 | 22RV1 PROSTATE | 0.906 ± 0.038 | 0.989 ± 0.043 | 0.975 ± 0.027 | 0.91 ± 0.069 | 0.687 ± 0.07 | 0.336 ± 0.047 | 0.134 ± 0.0046 | 0.0907 ± 0.011 | 1.01 ± 0.061 | 1.04 ± 0.029 | 0.962 ± 0.013 | 0.974 ± 0.0072 | 0.924 ± 0.037 | 1.102 ± 0.0057 | 1.04 ± 0.022 | 1.09 ± 0.068
2 | 93VU HEADNECK | 0.814 ± 0.066 | 0.78 ± 0.0099 | 0.822 ± 0.088 | 0.92 ± 0.087 | 1.13 ± 0.099 | 0.119 ± 0.011 | 0.092 ± 0.0062 | 0.0827 ± 0.005 | 0.962 ± 0.03 | 1.08 ± 0.057 | 1.06 ± 0.03 | 1.02 ± 0.14 | 0.868 ± 0.025 | 0.964 ± 0.093 | 0.849 ± 0.061 | 0.915 ± 0.04
3 | 143B BONE | 0.985 ± 0.047 | 0.992 ± 0.063 | 1.02 ± 0.029 | 0.965 ± 0.021 | 0.651 ± 0.011 | 0.271 ± 0.0071 | 0.0855 ± 0.00071 | 0.0855 ± 0.00071 | 0.945 ± 0.063 | 0.98 ± 0.047 | 0.932 ± 0.1 | 0.993 ± 0.069 | 0.966 ± 0.042 | 0.965 ± 0.013 | 1.01 ± 0.046 | 1.01 ± 0.057
4 | A549 LUNG | 0.923 ± 0.039 | 0.909 ± 0.038 | 0.91 ± 0.007 | 0.813 ± 0.076 | 0.14 ± 0.014 | 0.06 ± 0.0044 | 0.0547 ± 0.0032 | 0.0493 ± 0.00058 | 0.979 ± 0.018 | 0.9893 ± 0.0035 | 1.01 ± 0.033 | 1.02 ± 0.045 | 0.994 ± 0.017 | 1.06 ± 0.035 | 1.01 ± 0.032 | 1.03 ± 0.069
5 | ASKA SYNOVIAL | 0.785 ± 0.062 | 0.728 ± 0.11 | 0.626 ± 0.045 | 0.293 ± 0.025 | 0.206 ± 0.014 | 0.182 ± 0.02 | 0.185 ± 0.011 | 0.226 ± 0.0099 | 1.04 ± 0.03 | 1.07 ± 0.046 | 1.08 ± 0.086 | 1.11 ± 0.039 | 0.939 ± 0.03 | 0.964 ± 0.05 | 0.926 ± 0.048 | 0.951 ± 0.055
6 | BT20 BREAST | 0.804 ± 0.1 | 0.793 ± 0.054 | 0.504 ± 0.08 | 0.308 ± 0.034 | 0.303 ± 0.061 | 0.282 ± 0.091 | 0.261 ± 0.068 | 0.278 ± 0.047 | 1.08 ± 0.13 | 0.977 ± 0.039 | 1.01 ± 0.062 | 1.02 ± 0.048 | 0.964 ± 0.086 | 0.901 ± 0.058 | 0.898 ± 0.032 | 0.907 ± 0.11
7 | BT549 BREAST | 0.874 ± 0.12 | 0.811 ± 0.034 | 0.604 ± 0.092 | 0.259 ± 0.064 | 0.152 ± 0.028 | 0.0433 ± 0.0042 | 0.0447 ± 0.0045 | 0.0467 ± 0.0025 | 1.02 ± 0.047 | 1.01 ± 0.12 | 1.09 ± 0.15 | 1.09 ± 0.15 | 0.76 ± 0.23 | 0.799 ± 0.19 | 0.744 ± 0.071 | 0.75 ± 0.018
8 | C33A CERVIX | 1.22 ± 0.12 | 1.04 ± 0.14 | 1.4 ± 0.13 | 1.2 ± 0.09 | 1.31 ± 0.068 | 1.16 ± 0.1 | 1.061 ± 0.0074 | 0.124 ± 0.016 | 0.872 ± 0.066 | 1.007 ± 0.0076 | 1.12 ± 0.087 | 0.985 ± 0.061 | 0.879 ± 0.066 | 1 ± 0.069 | 0.851 ± 0.055 | 0.953 ± 0.066
9 | CADOES1 SOFT TISSUE | 0.884 ± 0.093 | 1.01 ± 0.07 | 1 ± 0.076 | 0.903 ± 0.023 | 0.876 ± 0.11 | 0.842 ± 0.1 | 0.454 ± 0.1 | 0.129 ± 0.022 | 0.884 ± 0.024 | 0.935 ± 0.085 | 0.968 ± 0.1 | 0.914 ± 0.056 | 0.952 ± 0.047 | 1.05 ± 0.091 | 0.979 ± 0.056 | 0.964 ± 0.073
10 | CAL51 BREAST | 0.966 ± 0.047 | 0.886 ± 0.052 | 0.989 ± 0.033 | 0.93 ± 0.033 | 0.361 ± 0.0083 | 0.0827 ± 0.0082 | 0.0253 ± 0.00076 | 0.024 ± 0.0005 | 0.895 ± 0.042 | 0.923 ± 0.013 | 0.9295 ± 0.0062 | 0.931 ± 0.043 | 0.931 ± 0.056 | 0.975 ± 0.071 | 0.9558 ± 0.009 | 0.963 ± 0.01
11 | CAL72 BONE | 1.05 ± 0.064 | 1 ± 0.016 | 0.982 ± 0.016 | 1 ± 0.017 | 1.15 ± 0.032 | 0.953 ± 0.04 | 0.249 ± 0.015 | 0.234 ± 0.011 | 0.994 ± 0.016 | 1.01 ± 0.017 | 1.021 ± 0.0075 | 0.9987 ± 0.0091 | 0.919 ± 0.042 | 0.934 ± 0.025 | 0.922 ± 0.033 | 0.938 ± 0.037
12 | CAL120 BREAST | 0.87 ± 0.04 | 0.861 ± 0.032 | 0.904 ± 0.016 | 0.83 ± 0.0039 | 0.226 ± 0.024 | 0.119 ± 0.015 | 0.0875 ± 0.0079 | 0.076 ± 0.0061 | 0.987 ± 0.019 | 0.968 ± 0.018 | 0.999 ± 0.012 | 1 ± 0.012 | 0.997 ± 0.021 | 1.01 ± 0.013 | 0.942 ± 0.013 | 0.989 ± 0.016
13 | CASKI CERVIX | 0.745 ± 0.065 | 0.787 ± 0.04 | 0.77 ± 0.057 | 0.599 ± 0.072 | 0.1 ± 0.007 | 0.054 ± 0.0053 | 0.0283 ± 0.0025 | 0.0287 ± 0.0015 | 0.939 ± 0.035 | 0.979 ± 0.026 | 0.958 ± 0.026 | 0.973 ± 0.046 | 0.828 ± 0.049 | 0.893 ± 0.058 | 0.876 ± 0.075 | 0.898 ± 0.084
14 | CHLA90 AUTONOMIC GANGLIA | 0.927 ± 0.033 | 0.941 ± 0.023 | 0.912 ± 0.055 | 0.889 ± 0.037 | 0.476 ± 0.012 | 0.32 ± 0.018 | 0.175 ± 0.0084 | 0.143 ± 0.0023 | 0.923 ± 0.084 | 0.949 ± 0.06 | 0.962 ± 0.056 | 1.01 ± 0.062 | 0.914 ± 0.079 | 0.925 ± 0.013 | 0.92 ± 0.028 | 0.953 ± 0.041
15 | CME SYNOVIAL | 0.9 ± 0.14 | 0.767 ± 0.024 | 1.01 ± 0.12 | 0.896 ± 0.13 | 0.259 ± 0.033 | 0.222 ± 0.015 | 0.239 ± 0.029 | 0.306 ± 0.032 | 1.24 ± 0.088 | 1.2 ± 0.12 | 1.2 ± 0.27 | 1.3 ± 0.16 | 1.07 ± 0.098 | 1.12 ± 0.13 | 1.03 ± 0.17 | 0.9627 ± 0.0064
16 | COLO320DM LARGE INTESTINE | 1.04 ± 0.084 | 0.959 ± 0.094 | 1.05 ± 0.038 | 1.17 ± 0.075 | 1.26 ± 0.41 | 0.955 ± 0.16 | 0.505 ± 0.032 | 0.286 ± 0.048 | 1.02 ± 0.063 | 1.03 ± 0.12 | 1.14 ± 0.081 | 1.06 ± 0.069 | 1.05 ± 0.094 | 1.02 ± 0.087 | 1.04 ± 0.092 | 0.977 ± 0.095

— the supplement of paper PMC6045584
